Laboratory results from US20260248820A1, “USES OF HYDROGENATED CANNABIDIOL (H4CBD) AND ADVANCED METABOLIC SYNDROME” (The Regents of the University of California, priority 2022, published 2026).

Experiments:
[1] = system: Otsuka Long-Evans Tokushima Fatty (OLETF) rat; assay: End of study fasting blood/plasma measurements (glucose, hormones, lipids, RAAS peptides); format: in vivo; parameters: Plasma AngII higher than OLETF control / Plasma Ang 1-7 higher than OLETF control / Plasma aldosterone higher than OLETF control / Reduction of fasting insulin to glucagon ratio compared to OLETF / Reduction of circulating adiponectin compared to OLETF / Reduction of leptin compared to OLETF: concentration or dose not given beside the values
Excerpt: Tissue Collection—After the 4-week study and 3 days following the OGTT, animals were fasted overnight and tissues were collected the following morning.
Statistics—All values are represented as mean #standard error mean (SEM) unless otherwise indicated. Means were compared by one-way ANOVA followed by Tukey's honest significant difference or unpaired, one-tailed t-test to assess significant differences among groups. Means and regressions were considered significant at p<0.05. Outliers were detected by ROUT (Q=1.0%) and removed; however, it should be noted that this was necessary for only 12 occurrences. All statistical procedures, including Pearson r correlations, were performed using GraphPad Prism 9.3.1 (GraphPad Software, Inc., San Diego, CA, USA).
Tissue Collection—After the 4-week study period, animals were fasted overnight, and tissues were collected at sacrifice the following morning. BM was recorded before animals were decapitated and trunk blood was collected.
Plasma Analysis—Plasma concentrations of adiponectin (Millipore Sigma; EZRADP-62K), aldosterone (R&D Systems; KGE016), angiotensin 1-7 (Phoenix Pharmaceuticals; EKE-002-01), angiotensin II (Phoenix Pharmaceuticals; EK-002-12CE), corticosterone (R&D Systems; KGE009), ghrelin (Sigma Aldrich; RAB0207), glucagon (Crystal Chemicals; 81519), leptin (Millipore Sigma; EZRL-83K), non-esterified fatty acid (NEFA) (Wako Chemicals) and triglycerides (Cayman Chemical; 10010303) were measured in fasted, end of study plasma samples. All samples were analyzed in duplicate and run in a single assay with intra-assay and percent CV of <10% for all assays.

[2] = system: Otsuka Long-Evans Tokushima Fatty (OLETF) rat; assay: Liver triglyceride content; format: in vivo; conditions: p<0.05
[3] = H4CBD-treated OLETF rats, end of study fasting, mean ± SEM
[4] = H4CBD-treated OLETF rats, end of study, mean ± SEM

In the case of `CCCCCc1cc(O)c(C2CC(C)CCC2C(C)C)c(O)c1` (stereo not shown) [H4CBD, 2-(2-isopropyl-5-methylcyclohexyl)-5-pentylbenzene-1,3-diol], the “Fasting blood glucose higher than LETO” value ([1]; 45 weeks of age, p<0.0001) is reported as 2.2 fold, the “Fasting blood glucose higher than OLETF” value ([1]; 45 weeks of age, p<0.01) is reported as 56% and the “Glucose:Insulin (mmol/μIU × 10^4)” value [1, 3] is reported as 10.9 ± 1.1^ mmol/μIU × 10^4. For the same compound, the “Insulin:Glucagon (μIU/pg)” value [1, 3] was 0.6 ± 0.0^ μIU/pg, the “Fasting glucagon” value [1, 4] was 19.4 ± 9.4 pg/mL and the “Fasting insulin (μIU/mL)” value [1, 4] was 13.9 ± 0.4^# μIU/mL. The “Fasting blood glucose (mmol/L)” value ([1]; H4CBD-treated OLETF rats, end of study, mean ± SEM, n = 8) was 15.8 ± 1.9^†£ mmol/L, the “Fasted plasma NEFA” value ([1]; LETO, OLETF, H4CBD) was “not different among groups” and the “Increase of fasting plasma insulin over OLETF” value ([1]; end of study) was 10%. For the same compound, the “Plasma glucagon, OLETF versus H4CBD” value ([1]; end of study fasting) was “not different”, the “Plasma Ang 1-7 higher than OLETF control” value ([1]; end of study plasma) was 26% and the “Plasma AngII higher than OLETF control” value ([1]; end of study plasma) was 24%. The “Plasma aldosterone higher than OLETF control” value ([1]; end of study plasma, p=0.052) was 150%, the Plasma corticosterone ([1]; fasting plasma, LETO, OLETF, H4CBD) was “comparable amongst the groups” and the “Plasma ghrelin greater than the other groups” value ([1]; fasting plasma, p<0.01 vs OLETF, p<0.05 vs LETO) was 75%. For the same compound, the “Reduction of circulating adiponectin compared to OLETF” value ([1]; fasting plasma, p<0.05) was 40%, the “Reduction of leptin compared to OLETF” value ([1]; fasting plasma, p<0.05) was 47% and the “Leptin:adiponectin ratio” value ([1]; fasting plasma, ratio 30% lower in OLETF than LETO) was “did not modulate the ratio further”. The “Fasted plasma TG” value ([1]; p<0.0001 OLETF vs. H4CBD, TG 147% higher in OLETF than LETO) was “reduced fasted plasma TG to LETO control levels”, the “Increase of fasting glucose to insulin ratio compared to OLETF” value ([1]; p<0.05) was 47% and the “Reduction of fasting insulin to glucagon ratio compared to OLETF” value ([1]; p<0.05) was 64%. For the same compound, the “Reduction of liver triglyceride content” value [2] was 28%.
